# Results reported in publication PMC7725003, “Systematically Studying the Optimal Amino Acid Distribution Patterns of the Amphiphilic Structure by Using the Ultrashort Amphiphiles” (Frontiers in Microbiology, 2020).
# Where no end group is shown, it is not given here.
# Tested on: E. coli ATCC 25922
# Assay: Cytoplasmic membrane depolarization (DiSC3-5)
# Format: cell-based, Escherichia coli
# Conditions: DiSC3-5 release, at all concentrations
# Experimental: Mid-log phase E. coli ATCC 25922 cells (OD600 = 0.05) were incubated with 0.4 μM DiSC3-5 and 100 mM K ^+ in 5 mM HEPES buffer (pH 7.4, containing 20 mM glucose) until a steady decrease in fluorescence was achieved. The background fluorescence (excitation λ = 622 nm, emission λ = 670 nm) was recorded with an F-4500 fluorescence spectrophotometer (Hitachi, Japan). Subsequently, 2 mL of the cell suspension was added to a 1-cm quartz cuvette and mixed with various concentrations of peptide. The change in fluorescence in C-1, C-2, and C-3 was recorded from 0 to 1,000, 2,000, and 2,500 s, respectively.
substance,measurement,value
RWRWRWRWW-NH2 [W5],time to cytoplasmic membrane depolarization / highest fluorescence intensity,≤ 300 s
